In US20040116523A1, “Use of c4-c10 acids for preventing gram-negative bacterial infections” (priority 2000, published 2004):

Tests used:
Shigella sonnei = conditions: 1.25 g/l; cited from earlier work
S. typhi = conditions: 1.25 g/l; cited from earlier work
[1] = system: Gram-positive or Gram-negative bacteria; conditions: 7.8 mM, in vitro; cited from earlier work
[2] = system: tviB′-lacZ fusion (S. typhi strain Ty266); test: β-galactosidase activity of the tviB′-lacZ fusion (specificity control); format: cell-based; conditions: 5 mM in favourable LB medium
Protocol: (§1) Each of the strains described above was cultured at 37° C. on agar or in TCS broth. The P-galactosidase activity was determined using 4-methyl-umbelliferyl-p-D-galactopyranoside sold by the company Sigma, according to the technique of Klarsfeld et al. (Mol. Mibrobiol., 1994, 13, 585-597). The results, expressed in P-galactosidase units (fluorescence per hour and per OD600), represent the mean of the values obtained in at least three independent experiments. The standard deviations were less than 10% of the values presented.
The tviB gene has been characterized in S. typhi, and it encodes a GDP-dehydrogenase involved in the biosynthesis of the Vi antigen, which is the capsular polysaccharide of the typhus bacillus (Waxin et al., Res. Microbiol., 1993, 144, 363-371).
The results are reported on FIG. 4, in which it is seen that samples were taken every two hours in order to measure the OD600 (corresponding to the open symbols) and in order to determine the β-galactosidase activity (corresponding to the solid symbols).

S. typhimurium C52 = test: Splenic colonization of C57Bl/6 mice infected orally with S. typhimurium C52; format: in vivo
Protocol: The 5-6-week-old female C57Bl/6 mice used in the context of this experiment originated from the IFFA-CREDO breeding centre (LArbresle, France).
(§2) They were infected orally in the following way. The Salmonella strains were cultured in TCS broth for 18 hours at 37° C. with shaking (200 rpm). This culture was then adjusted to […] (in the stationary growth phase, 1 OD600 =1.5 ×10^9 bacteria/ml), and then the number of viable bacteria was controlled by counting on TCS agar.
(§3) On the day of infection (DO), the drinking-water bottles of the mice were replaced with bottles containing 100 ml of drinking water to which the required number of bacteria had been added.
(§4) After infection for 24 hours ([…]), the bottles containing the contaminated drinking water were replaced with bottles containing uncontaminated drinking water.
(§5) Seven days after infection (D+7), the spleens of the mice infected in this way were removed and homogenized separately in 1 ml of physiological saline containing 0.7% of NaCl.
(§6) The number of viable bacteria per spleen was determined by plating out dilutions of the homogenate, onto TCS agar.
The effect of the composition of the drinking water on the splenic colonization by Salmonella was estimated using the Student's t test.
The S. typhimurium strain C52 was used to infect C57Bl/6 mice orally.
On this figure, the number of viable bacteria is given as the mean (log10) of the values ± the standard deviation. […]

S. dublin 5917 = test: Splenic colonization of C57Bl/6 mice infected orally with S. dublin 5917; format: in vivo; conditions: 50 mM in drinking water pH 7.2-7.3; 10^7 bacteria per animal orally; distilled water 7.7 ± 0.4
Protocol: as §2, §3, §4, §5, §6
(§7) The S. dublin strain 5917 (Coynault & Norel, Microb. Pathog., 1999, 26, 299-305) and S. enteritidis strain LAS (Thorns et al., Microb. Pathog., 1996, 20, 235-246) were used to infect C57B1/6 mice orally at the dose of 10^7 bacteria per animal.

Vibrio cholerae = conditions: 1.25 g/l; cited from earlier work
S. enteritidis LA5 = test: Splenic colonization of C57Bl/6 mice infected orally with S. enteritidis LA5; format: in vivo; conditions: 50 mM in drinking water pH 7.2-7.3; 10^7 bacteria per animal orally; distilled water 7.5 ± 0.3
Protocol: as §2, §3, §4, §5, §6, §7

[3] = system: invF′-lacZ fusion (S. typhi strain Ty272); test: β-galactosidase activity of the invF′-lacZ fusion in favourable LB medium; format: cell-based
Protocol: (§8) The favourable LB medium (high osmolarity and concentration of Ca^2+ions) was defined as being the standard LB medium modified so as to have a final NaCl concentration of 300 mM and a final Ca concentration of 5 mM.
as §1
(§9) For this, the S. typhi strains Ty267, Ty272 and Ty277, which carry the iagA′-lacZ, invF′-lacZ and sipB′-lacZ fusions, respectively, (see Table I), were cultured in the favourable LB or unfavourable LB medium.
(§10) The action of these two compounds on the expression of the iagA′-lacZ, invF′-lacZ and sipB′-lacZ fusions was studied by measuring the β-galactosidase activity expressed by these fusions as a function of the time of culturing (samples removed every two hours).

[4] = system: sipB′-lacZ fusion (S. typhi strain Ty277); test: β-galactosidase activity of the sipB′-lacZ fusion in favourable LB medium; format: cell-based
Protocol: as §8, §1, §9, §10

[5] = system: iagA′-lacZ fusion (S. typhi strain Ty267); test: β-galactosidase activity of the iagA′-lacZ fusion in favourable LB medium; format: cell-based
[6] = system: enteropathogenic and enterotoxigenic E. coli; conditions: 1.25 g/l; cited from earlier work
[7] = system: iagA′-lacZ fusion (S. typhi strain Ty267); test: β-galactosidase activity of the iagA′-lacZ fusion in favourable LB medium; format: cell-based; conditions: fatty acid as sodium salt, 5 mM in favourable LB medium, 6 hours at 37° C.; control 22022 ± 1177
Protocol: as §8
as §1, with “presented. […]” for “presented.”
The β-galactosidase activity of the iagA′-lacZ fusion was measured after incubation for 6 hours at 37° C. with shaking (200 rpm).
The S. typhi Ty267 strain (iagA′-lacZ fusion) was seeded into favourable LB medium and into favourable LB medium containing the fatty acid to be tested, in the form of its sodium salt, at the final concentration of 5 mM.

S. typhi strain Ty2 = test: Mobility by the U-tube culturing technique; format: cell-based; conditions: U tube supplemented with 5 mM
Protocol: The mobility of each strain was studied using the U-tube culturing technique (Popoff and Le Minor, Guide pour la preparation des serum anti-Salmonella (Guide for preparing salmonella antisera], 1997). When necessary, the culture media were supplemented with chloramphenicol (Cm) at 15 μg/ml.

[8] = concentration greater than or equal to 2.5 mM, favourable LB medium

CCCCCCCC(=O)[O-].[Na+] [sodium caprylate]
bactericidal activity in vitro on Shigella sonnei (Shigella sonnei): no bactericidal activity
bactericidal activity in vitro on S. typhi (S. typhi): no bactericidal activity
bacteriostatic or bactericidal effect on Gram-positive or Gram-negative bacteria [1]: no bacteriostatic or bactericidal effect
effect on the expression of the tviB′-lacZ fusion [2]: no significant effect
Number of viable bacteria in the spleen (mean log10) (S. typhimurium C52; 5 mM in drinking water, infectious dose 5 × 10^7 bacteria): 6.9 ± 0.5 log10
Number of viable bacteria in the spleen (mean log10) (S. typhimurium C52; 5 mM in drinking water, infectious dose 10^7 bacteria): 6.8 ± 0.2 log10
Number of viable bacteria in the spleen (mean log10) (S. typhimurium C52; 10 mM in drinking water, infectious dose 5 × 10^7 bacteria): 6.5 ± 0.4 log10
Number of viable bacteria in the spleen (mean log10) (S. typhimurium C52; 10 mM in drinking water, infectious dose 10^7 bacteria): 6.5 ± 1.4 log10
factor of decrease of the bacterial load in the spleen (S. typhimurium C52; 50 mM in drinking water from two days before infection, 5 × 10^7 bacteria, seventh day of infection): approximately 1 000
Number of viable bacteria in the spleen (mean log10) (S. typhimurium C52; 50 mM in drinking water, infectious dose 10^7 bacteria, distilled water 7.2 ± 0.3): 2.3 ± 0.4 log10
protective effect (in words) (S. typhimurium C52; 5 or 10 mM in the drinking water, whatever the infectious dose): no longer has a significant protective effect
Number of viable bacteria in the spleen (mean in log10) (S. dublin 5917): 2.1 ± 0.2 log10
bactericidal activity in vitro on Vibrio cholerae (Vibrio cholerae): no bactericidal activity
Number of viable bacteria in the spleen (mean in log10) (S. enteritidis LA5): 3.7 ± 0.4 log10
β-galactosidase activity expressed by the invF′-lacZ fusion as % of that in favourable LB medium without the substance ([3]; 1 mM in favourable LB medium): ~20%
expression of the invF gene (invF′-lacZ fusion) [3, 8]: very strongly represses
β-galactosidase activity expressed by the sipB′-lacZ fusion as % of that in favourable LB medium without the substance ([4]; 1 mM in favourable LB medium): ~20%
expression of the sipB gene (sipB′-lacZ fusion) [4, 8]: very strongly represses
β-galactosidase activity expressed by the iagA′-lacZ fusion as % of that in favourable LB medium without the substance ([5]; 1 mM in favourable LB medium): ~20%
expression of the iagA gene (iagA′-lacZ fusion) [5, 8]: very strongly represses
bactericidal activity in vitro on enteropathogenic and enterotoxigenic E. coli [6]: no bactericidal activity
β-Galactosidase activity of the iagA′-lacZ fusion (Table VII) [7]: 445 ± 69 β-galactosidase units
mobility of the Ty2 strain (S. typhi strain Ty2): same mobility
